In brackets after ≈: the same amount, converted by molar mass. Structures can show the parent of a compound that is named as a salt. Where two headings read alike, the source gives them in different places.
How the values were obtained:
Experiment in all cases: MIC, agar dilution test
Assay type in all cases: cell-based
E. coli 445/7 = conditions: Escherichia coli, agar dilution test/isosensitest medium
Description: (§1) | Agar dilution test/isosensitest medium

E. coli Neumann = conditions: Escherichia coli, agar dilution test/isosensitest medium
Description: as §1

E. coli T 7 = conditions: Escherichia coli, T7
Description: as §1

Klebsiella 6179 = conditions: agar dilution test/isosensitest medium
Description: as §1

Klebsiella 63 = conditions: agar dilution test/isosensitest medium
Description: as §1

Proteus 1017 = conditions: agar dilution test/isosensitest medium
Description: as §1

Providencia 12012 = conditions: agar dilution test/isosensitest medium
Description: as §1

Providencia 12052 = conditions: agar dilution test/isosensitest medium
Description: as §1

Pseudom. Ellsworth = conditions: agar dilution test/isosensitest medium
Description: as §1

Staph. 133 = conditions: agar dilution test/isosensitest medium
Description: as §1

Staph. 1756 = conditions: agar dilution test/isosensitest medium
Description: as §1

Staph. FK 422 = conditions: agar dilution test/isosensitest medium
Description: as §1

[1] = E. coli 445/7 (first MIC table)
[2] = E. coli T 7, agar dilution test/isosensitest medium, read-out: MIC
[3] = 445/7, E. coli 455/7 (second MIC table)

SMILES | MIC (E. coli 445/7; [1]) | MIC (E. coli Neumann) | MIC (E. coli T 7; [2]) | MIC (Klebsiella 6179) | MIC (Klebsiella 63) | MIC (Proteus 1017) | MIC (Providencia 12012) | MIC (Providencia 12052) | MIC (Pseudom. Ellsworth) | MIC (Staph. 133) | MIC (Staph. 1756) | MIC (Staph. FK 422) | MIC (E. coli T 7) | MIC (E. coli 445/7; [3])
O=C(O)c1cn(C2CC2)c2c(F)c(N3CCNCC3)c(Cl)cc2c1=O [Example 1, 6-chloro-1-cyclopropyl-8-fluoro-1,4-dihydro-4-oxo-7-(1-piperazinyl)-3-quinolinecarboxylic acid] | 4 µg/mL (≈ 10.9 µM) | ≤ 0.015 µg/mL | ≤ 0.015 µg/mL | 0.03 µg/mL (≈ 0.082 µM) | ≤ 0.015 µg/mL | ≤ 0.015 µg/mL | ≤ 0.015 µg/mL | 8 µg/mL (≈ 21.9 µM) | 0.06 µg/mL (≈ 0.164 µM) | 0.25 µg/mL (≈ 0.683 µM) | 0.25 µg/mL (≈ 0.683 µM) | 0.25 µg/mL (≈ 0.683 µM) | – | –
CC1CN(c2c(Cl)cc3c(=O)c(C(=O)O)cn(C4CC4)c3c2F)CCN1 (stereo not drawn) [Example 2] | 8 µg/mL (≈ 21.1 µM) | ≤ 0.015 µg/mL | ≤ 0.015 µg/mL | 0.03 µg/mL (≈ 0.079 µM) | 0.03 µg/mL (≈ 0.079 µM) | – | 0.03 µg/mL (≈ 0.079 µM) | 16 µg/mL (≈ 42.1 µM) | – | 0.25 µg/mL (≈ 0.658 µM) | 0.5 µg/mL (≈ 1.32 µM) | 0.25 µg/mL (≈ 0.658 µM) | – | –
CCC1CN(c2c(Cl)cc3c(=O)c(C(=O)O)cn(C4CC4)c3c2F)CCN1 (stereo not drawn) [Example 3] | 8 µg/mL (≈ 20.3 µM) | ≤ 0.015 µg/mL | ≤ 0.015 µg/mL | ≤ 0.015 µg/mL | 0.03 µg/mL (≈ 0.0762 µM) | – | – | 16 µg/mL (≈ 40.6 µM) | – | 0.25 µg/mL (≈ 0.635 µM) | 0.25 µg/mL (≈ 0.635 µM) | 0.25 µg/mL (≈ 0.635 µM) | – | –
CC1CN(c2c(Cl)cc3c(=O)c(C(=O)O)cn(C4CC4)c3c2F)CC(C)N1 (stereo not drawn) [Example 5] | 8 µg/mL (≈ 20.3 µM) | ≤ 0.015 µg/mL | ≤ 0.015 µg/mL | 0.03 µg/mL (≈ 0.0762 µM) | 0.03 µg/mL (≈ 0.0762 µM) | – | – | 32 µg/mL (≈ 81.3 µM) | – | 0.5 µg/mL (≈ 1.27 µM) | 0.5 µg/mL (≈ 1.27 µM) | 0.25 µg/mL (≈ 0.635 µM) | – | –
CN1CCN(c2c(Cl)cc3c(=O)c(C(=O)O)cn(C4CC4)c3c2F)CC1 [Example 6] | 4 µg/mL (≈ 10.5 µM) | ≤ 0.015 µg/mL | ≤ 0.015 µg/mL | 0.015 µg/mL (≈ 0.0395 µM) | 0.015 µg/mL (≈ 0.0395 µM) | 0.06 µg/mL (≈ 0.158 µM) | 0.03 µg/mL (≈ 0.079 µM) | 4 µg/mL (≈ 10.5 µM) | – | 0.25 µg/mL (≈ 0.658 µM) | 0.5 µg/mL (≈ 1.32 µM) | 0.025 µg/mL (≈ 0.0658 µM) | – | –
O=C(O)c1cn(C2CC2)c2c(F)c(N3CCN(CCO)CC3)c(Cl)cc2c1=O [Example 7] | 16 µg/mL (≈ 39 µM) | ≤ 0.015 µg/mL | ≤ 0.015 µg/mL | 0.06 µg/mL (≈ 0.146 µM) | 0.06 µg/mL (≈ 0.146 µM) | 0.125 µg/mL (≈ 0.305 µM) | – | 16 µg/mL (≈ 39 µM) | – | 0.25 µg/mL (≈ 0.61 µM) | 0.5 µg/mL (≈ 1.22 µM) | 0.5 µg/mL (≈ 1.22 µM) | – | –
O=C(O)c1cn(C2CC2)c2c(F)c(N3CCNC(C4CCCCC4)C3)c(Cl)cc2c1=O (stereo not drawn) [Example 8] | – | – | ≤ 0.015 µg/mL | – | – | – | – | – | – | 0.06 µg/mL (≈ 0.134 µM) | 0.06 µg/mL (≈ 0.134 µM) | 0.06 µg/mL (≈ 0.134 µM) | – | –
CCN1CCN(c2c(Cl)cc3c(=O)c(C(=O)O)cn(C4CC4)c3c2F)CC1 [Example 10, 6-chloro-1-cyclopropyl-7-(4-ethyl-1-piperazinyl)-8-fluoro-1,4-dihydro-4-oxo-3-quinolinecarboxylic acid] | 16 µg/mL (≈ 40.6 µM) | ≤ 0.015 µg/mL | – | 0.06 µg/mL (≈ 0.152 µM) | 0.125 µg/mL (≈ 0.317 µM) | – | – | – | – | – | – | – | 0.025 µg/mL (≈ 0.0635 µM) | –
CC(=O)CCN1CCN(c2c(Cl)cc3c(=O)c(C(=O)O)cn(C4CC4)c3c2F)CC1 [Example 12, 6-chloro-1-cyclopropyl-8-fluoro-1,4-dihydro-4-oxo-7-[4-(3-oxobutyl)-1-piperazinyl]-3-quinolinecarboxylic acid] | – | ≤ 0.015 µg/mL | ≤ 0.015 µg/mL | 0.06 µg/mL (≈ 0.138 µM) | ≤ 0.015 µg/mL | 0.03 µg/mL (≈ 0.0688 µM) | ≤ 0.015 µg/mL | 16 µg/mL (≈ 36.7 µM) | 0.125 µg/mL (≈ 0.287 µM) | 0.25 µg/mL (≈ 0.574 µM) | 0.25 µg/mL (≈ 0.574 µM) | 0.25 µg/mL (≈ 0.574 µM) | – | 8 µg/mL (≈ 18.4 µM)
CC(=O)CN1CCN(c2c(Cl)cc3c(=O)c(C(=O)O)cn(C4CC4)c3c2F)CC1.Cl [Example 13, 6-chloro-1-cyclopropyl-8-fluoro-1,4-dihydro-4-oxo-7-[4-(2-oxopropyl)-1-piperazinyl]-3-quinolinecarboxylic acid hydrochloride] | – | ≤ 0.015 µg/mL | ≤ 0.015 µg/mL | 0.06 µg/mL | ≤ 0.015 µg/mL | ≤ 0.015 µg/mL | ≤ 0.015 µg/mL | 16 µg/mL | 0.125 µg/mL | 0.25 µg/mL | 0.25 µg/mL | 0.25 µg/mL | – | 8 µg/mL
O=C(CN1CCN(c2c(Cl)cc3c(=O)c(C(=O)O)cn(C4CC4)c3c2F)CC1)c1ccccc1 [Example 14, 6-chloro-1-cyclopropyl-8-fluoro-1,4-dihydro-4-oxo-7-[4-(2-oxo-2-phenylethyl)-1-piperazinyl]-3-quinolinecarboxylic acid] | – | ≤ 0.015 µg/mL | ≤ 0.015 µg/mL | 0.25 µg/mL (≈ 0.517 µM) | 0.06 µg/mL (≈ 0.124 µM) | 0.125 µg/mL (≈ 0.258 µM) | 0.06 µg/mL (≈ 0.124 µM) | 16 µg/mL (≈ 33.1 µM) | – | – | – | – | – | 2 µg/mL (≈ 4.13 µM)
CC1CN(c2c(Cl)cc3c(=O)c(C(=O)O)cn(C4CC4)c3c2F)CC(C)O1 (stereo not drawn) [Example 17, 6-chloro-1-cyclopropyl-8-fluoro-1,4-dihydro-7-(2,6-dimethyl-4-morpholinyl)-4-oxo-3-quinolinecarboxylic acid] | – | – | – | – | – | – | – | – | – | – | ≤ 0.015 µg/mL | ≤ 0.015 µg/mL | – | –
CN1CCN(c2c(F)cc3c(=O)c(C(=O)O)cn(C4CC4)c3c2Cl)CC1 [Example 19, 8-chloro-1-cyclopropyl-6-fluoro-1,4-dihydro-7-(4-methyl-1-piperazinyl)-4-oxo-3-quinolinecarboxylic acid] | – | ≤ 0.015 µg/mL | ≤ 0.015 µg/mL | 0.03 µg/mL (≈ 0.079 µM) | 0.03 µg/mL (≈ 0.079 µM) | 0.03 µg/mL (≈ 0.079 µM) | 0.03 µg/mL (≈ 0.079 µM) | 4 µg/mL (≈ 10.5 µM) | 0.125 µg/mL (≈ 0.329 µM) | 0.06 µg/mL (≈ 0.158 µM) | 0.06 µg/mL (≈ 0.158 µM) | 0.06 µg/mL (≈ 0.158 µM) | – | 1 µg/mL (≈ 2.63 µM)
CC1CN(c2c(F)cc3c(=O)c(C(=O)O)cn(C4CC4)c3c2Cl)CCN1 (stereo not drawn) [Example 20, 8-chloro-1-cyclopropyl-6-fluoro-1,4-dihydro-7-(3-methyl-1-piperazinyl)-4-oxo-3-quinolinecarboxylic acid] | – | ≤ 0.015 µg/mL | ≤ 0.015 µg/mL | 0.03 µg/mL (≈ 0.079 µM) | ≤ 0.015 µg/mL | ≤ 0.015 µg/mL | 0.03 µg/mL (≈ 0.079 µM) | 4 µg/mL (≈ 10.5 µM) | 0.25 µg/mL (≈ 0.658 µM) | 0.06 µg/mL (≈ 0.158 µM) | 0.06 µg/mL (≈ 0.158 µM) | 0.06 µg/mL (≈ 0.158 µM) | – | 1 µg/mL (≈ 2.63 µM)
O=C(O)c1cn(C2CC2)c2c(Cl)c(N3CCNCC3)c(F)cc2c1=O [Example 21, hydrochloride] | – | ≤ 0.015 µg/mL | ≤ 0.015 µg/mL | 0.03 µg/mL | 0.06 µg/mL | 0.03 µg/mL | 0.06 µg/mL | 1 µg/mL | – | 0.06 µg/mL | 0.125 µg/mL | 0.125 µg/mL | – | 1 µg/mL
CC1CN(c2c(Cl)cc3c(=O)c(C(=O)O)cn(C4CC4)c3c2Cl)CCN1 (stereo not drawn) [Example 22, 6,8-dichloro-1-cyclopropyl-1,4-dihydro-7-(3-methyl-1-piperazinyl)-4-oxo-3-quinolinecarboxylic acid] | – | ≤ 0.015 µg/mL | ≤ 0.015 µg/mL | 0.06 µg/mL (≈ 0.151 µM) | 0.03 µg/mL (≈ 0.0757 µM) | 0.06 µg/mL (≈ 0.151 µM) | 0.06 µg/mL (≈ 0.151 µM) | 2 µg/mL (≈ 5.05 µM) | – | 0.125 µg/mL (≈ 0.315 µM) | 0.125 µg/mL (≈ 0.315 µM) | 0.125 µg/mL (≈ 0.315 µM) | – | 2 µg/mL (≈ 5.05 µM)
CCn1cc(C(=O)O)c(=O)c2cc(F)c(N3CCNCC3)cc21 [Norfloxacin, 1-ethyl-6-fluoro-1,4-dihydro-4-oxo-7-(1-piperazinyl)-3-quinolinecarboxylicacid, reference compound] | – | 0.06 µg/mL (≈ 0.188 µM) | 0.03 µg/mL (≈ 0.0939 µM) | 0.25 µg/mL (≈ 0.783 µM) | 0.125 µg/mL (≈ 0.391 µM) | 0.03 µg/mL (≈ 0.0939 µM) | 0.03 µg/mL (≈ 0.0939 µM) | 64 µg/mL (≈ 200 µM) | 0.125 µg/mL (≈ 0.391 µM) | 0.5 µg/mL (≈ 1.57 µM) | 1 µg/mL (≈ 3.13 µM) | 0.5 µg/mL (≈ 1.57 µM) | – | 16 µg/mL (≈ 50.1 µM)
